# Data as given in patent publication US20160067246A1, “USE OF PHOSPHODIESTERASE 5A INHIBITORS FOR THE TREATMENT OF MUSCULAR DYSTROPHY” (CEDARS-SINAI MEDICAL CENTER, priority 2013, published 2016).
# How the values were obtained:
# [1] = tested on: patients with Becker muscular dystrophy (BMD); experiment: Functional sympatholysis: LBNP-induced decrease in forearm muscle oxygenation (NIR spectroscopy) at rest vs handgrip, tadalafil acute crossover trial; type: in vivo, human
# Method: Forearm muscle oxygenation was measured with near-infrared (NIR) spectroscopy, which is based on the principle that laser light with wavelengths in the 700-900 nm range easily penetrates skeletal muscle, and is absorbed by the iron-porphyrin moieties in hemoglobin and myoglobin. Changes in NIR light absorption are proportional to changes in the relative concentrations of oxygenated hemoglobin and myoglobin (HbO2 and MbO2). Because of their nearly identical absorption spectra, individual contributions of HbO2 and MbO2 cannot be determined. The NIR signals reflect changes in oxygenation occurring mainly in the microvasculature, because vessels greater than one millimeter in diameter are maximal absorbers of photons due to the high extinction coefficient of blood. Thus, NIR spectroscopy provides continuous measurement of the adequacy of tissue oxygen delivery relative to its use. […] Changes in forearm tissue oxygenation were expressed as a percentage of […] exercise was performed using a dynamometer ([…] Dynamometer modified by Stoelting, Wood Dale, Ill.). […] The pressure in the chamber was measured by a Statham transducer (Gould Inc., Oxnard, Calif.). […] Reflex vasoconstriction was measured as the LBNP-induced decrease in forearm muscle oxygenation by NIR spectroscopy; this approach provides a valid measure of reflex neurogenic vasoconstriction under these conditions (13). The BP, heart rate, handgrip force, and NIR signals were recorded in response to two minutes of LBNP applied at rest and during the third to fifth minutes of the seven-minute exercise period. […] Patients were queried about potential tadalafil-specific side-effects both for safety monitoring and to assess whether blinding was maintained. tadalafil blood levels were measured using high performance liquid chromatography/tandem mass spectrometry (NMS Labs Willow Grove, Pa.). […] Exercise-induced attenuation of reflex vasoconstriction (functional sympatholysis) was assessed by comparing the LBNP-induced AHbO2+MbO2 (% TLS) at rest vs. the LBNP-induced decrease in AHbO2+MbO2 during handgrip. […]
# [2] = tested on: boys with Duchenne muscular dystrophy (DMD); experiment: Exercise-induced hyperemia: brachial artery blood flow by Doppler ultrasound and hemodynamics, rest and post handgrip; type: in vivo, human; set-up: key to BA velocity: mean blood velocity in cm/s; Heart rate: unit not given here
# Method: Subjects were studied in the supine position. Heart rate was measured continuously by electrocardiography, and blood pressure measured by automated oscillometric sphygomanometry using a child's cuff ([…] Monitor 300 Series). Brachial artery mean blood velocity (MBV) was measured from the exercising arm using pulsed-Doppler ultrasonography (Siemens iE33). Data were acquired continuously with a 9-MHz probe with a 60° angle of insonation, placed on the skin surface distal to the axilla. The ultrasound gate was optimized to ensure complete insonation of the entire vessel cross-section with constant intensity. The Doppler audio signal was converted to a real-time flow velocity signal using a validated Doppler audio converter,^8B and recorded using a PowerLab data acquisition system (ADInstruments, CO). Brachial artery diameter was measured by B-mode imaging in triplicate at rest. […] Brachial artery blood flow was calculated as MBV (cm/s)·πr^2·60, where r is radius of the brachial artery. […] exercise was performed with a dynamometer ([…] Dynamometer modified by Stoelting). To determine maximal voluntary contraction (MVC), each subject was asked to grip the dynamometer as hard as possible. […] Vascular conductance was calculated as forearm blood flow divided by mean arterial pressure. […] Patients then crossed over 2 weeks later for the opposite drug. […] Patients were queried about potential side-effects throughout the study visit. Baseline characteristics of patients and controls were compared using Student's t test. Exercise-induced attenuation of reflex vasoconstriction (functional sympatholysis) was assessed by comparing the LBNP-induced AHbO2+MbO2 (% TLS) at rest versus the LBNP-induced decrease in ΔHbO2+MbO2 during handgrip. Group differences in ΔHbO2+MbO2 were assessed using a Student's t test. The drug treatment effect on LBNP-induced Δ·HbO2+MbO2 (% TLS) at rest versus the LBNP-induced decrease in ΔHbO2+MbO2 during handgrip was compared to baseline for each patient using a Student's t test. The group difference in the % Δ in brachial artery blood flow was assessed using a student's t test. The drug treatment effect on the % Δ in brachial artery blood flow was compared using a student's t test. All analyses were performed in SigmaPlot. Data are expressed as mean±SEM, unless otherwise specified.
compound,measurement,setting,value
CN1CC(=O)N2[C@H](c3ccc4c(c3)OCO4)c3[nH]c4ccccc4c3C[C@@H]2C1=O [tadalafil],attenuation of the reflex (LBNP) decrease in muscle oxygenation during handgrip,"[1]; 10 BMD patients, single 20 mg oral tadalafil, >=3 h after dose",52±12%
same,LBNP-induced ΔHbO2+MbO2 (% TLS) at rest,"[1]; BMD patients, 20 mg tadalafil, at rest",−17±2%
same,LBNP-induced ΔHbO2+MbO2 (% TLS) during handgrip,"[1]; BMD patients, 20 mg tadalafil, during handgrip 20% MVC",−9±2%
same,BA VC (vascular conductance),"[2]; 0.5 mg/kg, Post-exercise",2.6 ± 0.4 ml/min/mmHg
same,BA blood flow,"[2]; 0.5 mg/kg, Post-exercise",184 ± 24 mL/min
same,BA velocity,"[2]; 0.5 mg/kg, Post-exercise",38 ± 5
same,Heart rate,"[2]; 0.5 mg/kg, Post-exercise",94 ± 3
same,MAP,"[2]; 0.5 mg/kg, Post-exercise",72 ± 2 mmHg
same,BA VC (vascular conductance),"[2]; 0.5 mg/kg, Rest",1.7 ± 0.3 ml/min/mmHg
same,BA blood flow,"[2]; 0.5 mg/kg, Rest",118 ± 15 mL/min
same,BA velocity,"[2]; 0.5 mg/kg, Rest",26 ± 4
same,Heart rate,"[2]; 0.5 mg/kg, Rest",91 ± 3
same,MAP,"[2]; 0.5 mg/kg, Rest",74 ± 3 mmHg
same,BA VC (vascular conductance),"[2]; 1.0 mg/kg, Post-exercise",2.5 ± 0.3 ml/min/mmHg
same,BA blood flow,"[2]; 1.0 mg/kg, Post-exercise",170 ± 17 mL/min
same,BA velocity,"[2]; 1.0 mg/kg, Post-exercise",35 ± 4
same,Heart rate,"[2]; 1.0 mg/kg, Post-exercise",92 ± 4
same,MAP,"[2]; 1.0 mg/kg, Post-exercise",71 ± 3 mmHg
same,BA VC (vascular conductance),"[2]; 1.0 mg/kg, Rest",1.5 ± 0.3 ml/min/mmHg
same,BA blood flow,"[2]; 1.0 mg/kg, Rest",104 ± 14 mL/min
same,BA velocity,"[2]; 1.0 mg/kg, Rest",21 ± 3
same,Heart rate,"[2]; 1.0 mg/kg, Rest",91 ± 3
same,MAP,"[2]; 1.0 mg/kg, Rest",71 ± 2 mmHg
